Experimental data published in US8906929B2, “Inhibitors of human immunodeficiency virus replication” (priority 2012, dated 2014).
Like-named read-outs stand apart in the source and are kept apart here.

Experiments:
[1] = rcm bond, DCE
[2] = rcm bond, Hoveyda-Grubbs II, DCE
[3] = tested on: recombinant NL-Rluc virus; assay: Inhibition of HIV replication (NL-RLuc virus in MT-2 cells, luciferase readout); format: cell-based; settings: Human immunodeficiency virus 1, MT2, 120 h, 5 days of incubation, 10% FBS

## COC(=O)[C@@H](OC(C)(C)C)c1c(C)nc2cc3nn2c1N1CCC(C)(CC1)OCC=CC[C@H](C)Oc1ccccc1-c1cccc-3c1
[1]; from C=CCOC1(C)CCN(c2c([C@H](OC(C)(C)C)C(=O)OC)c(C)nc3cc(-c4cccc(-c5ccccc5O[C@@H](C)CC=C)c4)nn23)CC1, 20-membered ring, Hoveyda-Grubbs II, 1.5 mM, 2.0 h
  ring closure, isolated yield: 70%

## COC(=O)[C@@H](OC(C)(C)C)c1c(C)nc2cc3nn2c1-c1cc(F)c2c(c1)N(CC=CCCc1ccccc1-c1cccc-3c1)CCO2
[1]; from C=CCCc1ccccc1-c1cccc(-c2cc3nc(C)c([C@H](OC(C)(C)C)C(=O)OC)c(-c4cc(F)c5c(c4)N(CC=C)CCO5)n3n2)c1, 18-membered ring, Hoveyda-Grubbs II, 8.3 mM, 70.0 °C, 18.0 h
  ring closure, isolated yield: 54.5%

## COC(=O)[C@@H](OC(C)(C)C)c1c(C)nc2cc3nn2c1N1CCC(C)(CC1)OCC=CC[C@@H](C)Oc1ccccc1-c1cccc-3c1
[1]; from C=CCOC1(C)CCN(c2c([C@H](OC(C)(C)C)C(=O)OC)c(C)nc3cc(-c4cccc(-c5ccccc5O[C@H](C)CC=C)c4)nn23)CC1, 20-membered ring, Hoveyda-Grubbs II, 1.43 mM, 2.0 h
  ring closure, isolated yield: 100%

## COC(=O)[C@@H](OC(C)(C)C)c1c(C)nc2cc3nn2c1-c1ccc2c(c1Cl)N(CC=CCOc1cccc(c1)-c1cccc-3c1)CCO2
[2]; from C=CCOc1cccc(-c2cccc(-c3cc4nc(C)c([C@H](OC(C)(C)C)C(=O)OC)c(-c5ccc6c(c5Cl)N(CC=C)CCO6)n4n3)c2)c1, 19-membered ring, then NaOH, 29.0 mM, 50.0 °C, 5.0 h, 2 steps
  ring closure, yield after HPLC: 26.6%

## COC(=O)[C@@H](OC(C)(C)C)c1c(C)nc2cc3nn2c1-c1ccc2c(c1)C(CC=CCOc1ccccc1-c1cccc-3c1)CCO2 (stereo partly shown)
[1]; from C=CCOc1ccccc1-c1cccc(-c2cc3nc(C)c([C@H](OC(C)(C)C)C(=O)OC)c(-c4ccc5c(c4)C(CC=C)CCO5)n3n2)c1, 18-membered ring, Hoveyda-Grubbs II, 2.06 mM, 70.0 °C, 3.0 h
  ring closure, isolated yield: 84%

## COC(=O)[C@@H](OC(C)(C)C)c1c(C)nc2cc3nn2c1N1CCC(C)(CC1)COCC=CCCc1ccccc1-c1cccc-3c1
[1]; from C=CCCc1ccccc1-c1cccc(-c2cc3nc(C)c([C@H](OC(C)(C)C)C(=O)OC)c(N4CCC(C)(COCC=C)CC4)n3n2)c1, 20-membered ring, Hoveyda-Grubbs II (10 mol%), 1.23 mM, 70.0 °C, 3.0 h
  ring closure, isolated yield: 98%

## COC(=O)[C@@H](OC(C)(C)C)c1c(C)nc2cc3nn2c1N1CCC(C)(CC1)OCC=CC(C)Oc1ccccc1-c1cccc-3c1 (stereo partly shown)
[2]; from C=CCOC1(C)CCN(c2c([C@H](OC(C)(C)C)C(=O)OC)c(C)nc3cc(-c4cccc(-c5ccccc5OC(C)C=C)c4)nn23)CC1, 19-membered ring, 1.28 mM, 2.0 h
  ring closure, yield after HPLC: 98%

## COC(=O)[C@@H](OC(C)(C)C)c1c(C)nc2cc3nn2c1-c1ccc2c(c1Cl)N(CC=CCCCOc1ccccc1-c1cccc-3c1)CCO2
[1]; from C=CCCCOc1ccccc1-c1cccc(-c2cc3nc(C)c([C@H](OC(C)(C)C)C(=O)OC)c(-c4ccc5c(c4Cl)N(CC=C)CCO5)n3n2)c1, 20-membered ring, Hoveyda-Grubbs II, 27.0 mM, 50.0 °C, 3.0 h
  ring closure, isolated yield: 53.4%

## Methyl (2S)-2-(tert-butoxy)-2-[(23E)-4,27-dimethyl-21,26-dioxa-1,5,7,8-tetraazahexacyclo[25.2.2.1^6,^9.1^10,^14.0^2,^7.0^15,^20]tritriaconta-2,4,6(33),8,10(32),11,13,15(20),16,18,23-undecaen-3-yl]acetate
[1]; 19-membered ring, Hoveyda-Grubbs II, 1.3 mM
  ring closure, isolated yield: 100%

## COC(=O)[C@@H](OC(C)(C)C)c1c(C)nc2cc3nn2c1-c1ccc2c(c1Cl)N(CC=CCCc1ccccc1-c1cccc-3c1)CCO2
[1]; from C=CCCc1ccccc1-c1cccc(-c2cc3nc(C)c([C@H](OC(C)(C)C)C(=O)OC)c(-c4ccc5c(c4Cl)N(CC=C)CCO5)n3n2)c1, 18-membered ring, Hoveyda-Grubbs II, 70.0 °C, 4.0 h
  ring closure, isolated yield: 73%
[2]; from C=CCCc1ccccc1-c1cccc(-c2cc3nc(C)c([C@H](OC(C)(C)C)C(=O)OC)c(-c4ccc5c(c4Cl)N(CC=C)CCO5)n3n2)c1, 18-membered ring, 28.0 mM, 50.0 °C, 1.0 h
  ring closure, yield after HPLC: 26.5%

## COC(=O)[C@@H](OC(C)(C)C)c1c(C)nc2cc3nn2c1N1CCC(C)(CC1)OCC=CC[C@H](C)Oc1ccc(F)cc1-c1cccc-3c1
[1]; from C=CCOC1(C)CCN(c2c([C@H](OC(C)(C)C)C(=O)OC)c(C)nc3cc(-c4cccc(-c5cc(F)ccc5O[C@@H](C)CC=C)c4)nn23)CC1, 20-membered ring, Hoveyda-Grubbs II (20 mol%), then NaBH4/MeOH, 5.0 mM, 80.0 °C, 1.5 h, 2 steps
  ring closure, isolated yield: 38%

## Methyl (2S)-2-(tert-butoxy)-2-[(24E/Z)-4,17,23,28-tetramethyl-21,27-dioxa-1,5,7,8-tetraazahexacyclo[26.2.2.1^6,^9.1^10,^14.0^2,^7.0^15,^20]tetratriaconta-2,4,6(34),8,10(33), 11,13,15 (20),16,18,24-undecaen-3-yl]acetate
[1]; 20-membered ring, Hoveyda-Grubbs II (7 mol%), 4.0 mM, 85.0 °C
  ring closure, isolated yield: 70.6%

## Cc1nc2cc3nn2c(c1[C@H](OC(C)(C)C)C(=O)O)N1CCC(C)(CC1)OCCCC[C@H](C)Oc1ccc(Cl)c(C)c1-c1cccc-3c1 [Example 89, (2S)-2-(tert-Butoxy)-2-[(22S)-17-chloro-4,16,22,28-tetramethyl-21,27-dioxa-1,5,7,8-tetraazahexacyclo[26.2.2.1^6,^9.1^10,^14.0^2,^7.0^15,^20]tetratriaconta-2,4, 6(34), 8, 10(33), 11, 13, 15(20),16,18-decaen-3-yl]acetic acid]
[3]
  EC50: 110 nM

## Cc1nc2cc3nn2c(c1[C@H](OC(C)(C)C)C(=O)O)N1CCC(C)(CC1)OCCCCCOc1ccccc1-c1cccc-3c1 [Example 27, (2S)-2-(tert-Butoxy)-2-{4,28-dimethyl-21,27-dioxa-1,5,7,8-tetraazahexacyclo[26.2.2.1^6,^9.1^10,^14.0^2,^7.0^15,^20]tetratriaconta-2,4,6(34),8,10(33),11,13,15(20),16,18-decaen-3-yl}acetic acid]
[3]
  EC50: 10 nM

## Cc1nc2cc3nn2c(c1[C@H](OC(C)(C)C)C(=O)O)N1CCC(C)(CC1)OCC=CCOc1ccc(Cl)cc1-c1cccc-3c1 [Example 31, (2S)-2-(tert-Butoxy)-2-[17-chloro-4,2,7-dimethyl-21,26-dioxa-1,5,7,8-tetraazahexacyclo[25.2.2.1^6,^9.1^10,^14.0^2,^7.0^15,^20]tritriaconta-2,4,6(33),8,10(32),11,13,15(20),16,18,23-undecaen-3-yl]acetic acid]
[3]
  EC50: 6 nM
